Experiments:
[1] = biological target: T1, HCV genotype 1b (BK) NS3 modified enzyme with a R155K mutation (Hepatitis C virus genotype 1b, UniProt P26663, R1181K); assay: HCV NS3 protease time-resolved fluorescence (TRF) assay, genotype 1b R155K; assay type: biochemical; settings: Ki 1b R155K, genotype 1b (BK) NS3 R155K; single value
T1 construct: HCV genotype 1b (BK) NS3 modified enzyme
Summary of the method: (§1)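 Assay buffer: 50 mM HEPES pH 7.5, 150 mM NaCl, 0.1% PEG 8000, 0.15% Triton X-100. Ten-minute enzyme–inhibitor preincubation; substrate at 25 nM final; 6 h reaction, room temperature; signal/background set at 5-20 by enzyme amount.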

[2] = biological target: HCV NS3 protease genotype 3a (3A-1) (Hepatitis C virus genotype 3a, UniProt Q81258); assay: HCV NS3 protease time-resolved fluorescence (TRF) assay, genotype 3a; assay type: biochemical; settings: Ki 3a
Summary of the method: as §1

Row | Structure (SMILES) | Ki [1] | Ki [2]
1 | C=C[C@@H]1C[C@]1(NC(=O)[C@@H]1C[C@@H]2CN1C(=O)[C@H](C(C)(C)C)NC(=O)O[C@@H]1C[C@H]1CCCCCc1c(nc3ccccc3c1OCCCNC1CCCC1)O2)C(=O)NS(=O)(=O)C1(C)CC1 [Example 182, (1aR,5S,8S,10R,22aR)-5-tert-butyl-17-[3-(cyclopentylamino)propoxy]-N-[(1R,2S)-2-ethenyl-1-{[(1-methylcyclopropyl)sulfonyl]carbamoyl}cyclopropyl]-3,6-dioxo-1,1a,3,4,5,6,9,10, 18,19,20,21,22,22a-tetradecahydro-8H-7,10-methanocyclopropa[18,19][1,10,3,6] dioxadiazacyclononadecino[11,12-b] quinoline-8-carboxamide] | 64 pM | 610 pM
2 | C=C[C@@H]1C[C@]1(NC(=O)[C@@H]1C[C@@H]2CN1C(=O)[C@H](C(C)(C)C)NC(=O)O[C@@H]1C[C@H]1CCCCCc1c(nc3ccccc3c1OCCCNC1CC1)O2)C(=O)NS(=O)(=O)C1(C)CC1 [Example 183, (1aR,5S,8S,10R,22aR)-5-tert-butyl-17-[3-(cyclopropylamino)propoxy]-N-[(1R,2S)-2-ethenyl-1-{[(1-methylcyclopropyl)sulfonyl]carbamoyl}cyclopropyl]-3,6-dioxo-1,1a,3,4,5,6,9,10, 18,19,20,21,22,22a-tetradeca hydro-8H-7,10-methanocyclopropa[18,19][1,10,3,6] dioxadiazacyclononadecino[11,12-b] quinoline-8-carboxamide] | 70 pM | 950 pM
3 | C=C[C@@H]1C[C@]1(NC(=O)[C@@H]1C[C@@H]2CN1C(=O)[C@H](C(C)(C)C)NC(=O)O[C@@H]1C[C@H]1CCCCCc1c(nc3ccccc3c1OCCCN1CC(C#N)C1)O2)C(=O)NS(=O)(=O)C1(C)CC1 [Example 184, (1aR,5S,8S,10R,22aR)-5-tert-butyl-17-[3-(3-cyanoazetidin-1-yl)propoxy]-N-[(1R,2S)-2-ethenyl-1-{[(1-methylcyclopropyl)sulfonyl]carbamoyl}cyclopropyl]-3,6-dioxo-1,1a,3,4,5,6,9,10, 18,19,20,21,22,22a-tetradecahydro-8H-7,10-methanocyclopropa[18,19][1,10,3,6] dioxadiazacyclononadecino[11,12-b] quinoline-8-carboxamide] | 57 pM | 1100 pM
4 | C=C[C@@H]1C[C@]1(NC(=O)[C@@H]1C[C@@H]2CN1C(=O)[C@H](C(C)(C)C)NC(=O)O[C@@H]1C[C@H]1CCCCCc1c(nc3ccccc3c1OCCCNC(C)C)O2)C(=O)NS(=O)(=O)C1(C)CC1 [Example 185, (1aR,5S,8S,10R,22aR)-5-tert-butyl-N-[(1R,2S)-2-ethenyl-1-{[(1-methylcyclopropyl)sulfonyl]carbamoyl}cyclopropyl]-3,6-dioxo-17-[3-(propan-2-ylamino)propoxy]-1,1a,3,4,5,6,9,10,18,19,20,21,22,22a-tetradecahydro-8H-7,10-methanocyclopropa[18,19][1,10,3,6] dioxadiazacyclononadecino[11,12-b] quinoline-8-carboxamide] | 32 pM | 360 pM
5 | C=C[C@@H]1C[C@]1(NC(=O)[C@@H]1C[C@@H]2CN1C(=O)[C@H](C(C)(C)C)NC(=O)O[C@@H]1C[C@H]1CCCCCc1c(nc3ccccc3c1OCCCN(CCOC)CCOC)O2)C(=O)NS(=O)(=O)C1(C)CC1 [Example 186, (1aR,5S,8S,10R,22aR)-17-{3-[bis(2-methoxyethyl)amino]propoxy}-5-tert-butyl-N-[(1R,2S)-2-ethenyl-1-{[(1-methylcyclopropyl)sulfonyl]carbamoyl}cyclopropyl]-3,6-dioxo-1,1a,3,4,5,6,9,10, 18,19,20,21,22,22a-tetradecahydro-8H-7,10-methanocyclopropa[18,19][1,10,3,6] dioxadiazacyclononadecino[11,12-b] quinoline-8-carboxamide] | 78 pM | 1900 pM
6 | C=C[C@@H]1C[C@]1(NC(=O)[C@@H]1C[C@@H]2CN1C(=O)[C@H](C(C)(C)C)NC(=O)O[C@@H]1C[C@H]1CCCCCc1c(nc3ccccc3c1OCCCN(CCO)Cc1ccccc1)O2)C(=O)NS(=O)(=O)C1(C)CC1 [Example 187, (1aR,5S,8S,10R,22aR)-17-{3-[benzyl(2-hydroxyethyl)amino]propoxy}-5-tert-butyl-N-[(1R,2S)-2-ethenyl-1-{[(1-methylcyclopropyl)sulfonyl]carbamoyl}cyclopropyl]-3,6-dioxo-1,1a, 3,4,5,6,9,10,18,19,20,21,22,22a-tetradecahydro-8H-7,10-methanocyclopropa[18,19][1,10,3,6] dioxadiazacyclononadecino[11,12-b] quinoline-8-carboxamide] | 240 pM | 6100 pM
7 | C=C[C@@H]1C[C@]1(NC(=O)[C@@H]1C[C@@H]2CN1C(=O)[C@H](C(C)(C)C)NC(=O)O[C@@H]1C[C@H]1CCCCCc1c(nc3ccccc3c1OCCCN(CC(O)c1ccc(O)c(O)c1)C(C)C)O2)C(=O)NS(=O)(=O)C1(C)CC1 (stereo partly drawn) [Example 188, (1aR,5S,8S,10R,22aR)-5-tert-butyl-17-(3-{[2-(3,4-dihydroxyphenyl)-2-hydroxyethyl](propan-2-yl)amino}propoxy)-N-[(1R,2S)-2-ethenyl-1-{[(1-methylcyclopropyl)sulfonyl]carbamoyl}cyclopropyl]-3,6-dioxo-1,1a,3,4,5,6,9,10,18,19,20, 21,22,22a-tetradecahydro-8H-7,10-methanocyclopropa[18,19][1,10,3,6] dioxadiazacyclononadecino[11,12-b] quinoline-8-carboxamide] | 33 pM | 850 pM
8 | C=C[C@@H]1C[C@]1(NC(=O)[C@@H]1C[C@@H]2CN1C(=O)[C@H](C(C)(C)C)NC(=O)O[C@@H]1C[C@H]1CCCCCc1c(nc3ccccc3c1OCCCNCCc1cccc3ccccc13)O2)C(=O)NS(=O)(=O)C1(C)CC1 [Example 189, (1aR,5S,8S,10R,22aR)-5-tert-butyl-N-[(1R,2S)-2-ethenyl-1-{[(1-methylcyclopropyl)sulfonyl]carbamoyl}cyclopropyl]-17-(3-{[2-(naphthalen-1-yl)ethyl]amino}propoxy)-3,6-dioxo-1,1a,3,4,5,6,9,10,18,19,20, 21,22,22a-tetradecahydro-8H-7,10-methanocyclopropa[18,19][1,10,3,6] dioxadiazacyclononadecino[11,12-b] quinoline-8-carboxamide] | 81 pM | 3400 pM
9 | C=C[C@@H]1C[C@]1(NC(=O)[C@@H]1C[C@@H]2CN1C(=O)[C@H](C(C)(C)C)NC(=O)O[C@@H]1C[C@H]1CCCCCc1c(nc3ccccc3c1OCCCN(C)C(C)C(O)c1ccccc1)O2)C(=O)NS(=O)(=O)C1(C)CC1 (stereo partly drawn) [Example 190, (1aR,5S,8S,10R,22aR)-5-tert-butyl-N-[(1R,2S)-2-ethenyl-1-{[(1-methylcyclopropyl)sulfonyl]carbamoyl}cyclopropyl]-17-{3-[(1-hydroxy-1-phenylpropan-2-yl)(methyl)amino]propoxy}-3,6-dioxo-1,1a,3,4,5,6,9,10,18,19,20,21,22,22a-tetradecahydro-8H-7,10-methanocyclopropa[18,19][1,10,3,6] dioxadiazacyclononadecino[11,12-b] quinoline-8-carboxamide] | 74 pM | 1500 pM
10 | C=C[C@@H]1C[C@]1(NC(=O)[C@@H]1C[C@@H]2CN1C(=O)[C@H](C(C)(C)C)NC(=O)O[C@@H]1C[C@H]1CCCCCc1c(nc3ccccc3c1OCCCN(C)Cc1nc3cc(C)ccc3[nH]1)O2)C(=O)NS(=O)(=O)C1(C)CC1 [Example 191, (1aR,5S,8S,10R,22aR)-5-tert-butyl-N-[(1R,2S)-2-ethenyl-1-{[(1-methylcyclopropyl)sulfonyl]carbamoyl}cyclopropyl]-17-(3-{methyl[(5-methyl-1H-benzimidazol-2-yl)methyl]amino}propoxy)-3,6-dioxo-1,1a,3,4,5,6,9,10,18,19, 20,21,22,22a-tetradecahydro-8H-7,10-methano cyclopropa[18,19][1,10,3,6] dioxadiazacyclononadecino[11,12-b] quinoline-8-carboxamide] | 160 pM | 1500 pM
11 | C=C[C@@H]1C[C@]1(NC(=O)[C@@H]1C[C@@H]2CN1C(=O)[C@H](C(C)(C)C)NC(=O)O[C@@H]1C[C@H]1CCCCCc1c(nc3ccccc3c1OCCCN(CC)CCc1nc3ccccc3[nH]1)O2)C(=O)NS(=O)(=O)C1(C)CC1 [Example 192, (1aR,5S,8S,10R,22aR)-17-(3-{[2-(1H-benzimidazol-2-yl)ethyl](ethyl)amino}propoxy)-5-tert-butyl-N-[(1R,2S)-2-ethenyl-1-{[(1-methylcyclopropyl)sulfonyl]carbamoyl}cyclopropyl]-3,6-dioxo-1,1a,3,4,5,6,9,10,18,19,20,21, 22,22a-tetradecahydro-8H-7,10-methanocyclopropa[18,19][1,10,3,6] dioxadiazacyclononadecino[11,12-b] quinoline-8-carboxamide] | 100 pM | 710 pM
12 | C=C[C@@H]1C[C@]1(NC(=O)[C@@H]1C[C@@H]2CN1C(=O)[C@H](C(C)(C)C)NC(=O)O[C@@H]1C[C@H]1CCCCCc1c(nc3ccccc3c1OCCCN1CC(O)(c3ccccc3)C1)O2)C(=O)NS(=O)(=O)C1(C)CC1 [Example 193, (1aR,5S,8S,10R,22aR)-5-tert-butyl-N-[(1R,2S)-2-ethenyl-1-{[(1-methylcyclopropyl)sulfonyl]carbamoyl}cyclopropyl]-17-[3-(3-hydroxy-3-phenylazetidin-1-yl)propoxy]-3,6-dioxo-1,1a,3,4,5,6,9,10,18,19,20, 21,22,22a-tetradeca hydro-8H-7,10-methanocyclopropa[18,19][1,10,3,6] dioxadiazacyclononadecino[11,12-b] quinoline-8-carboxamide] | 160 pM | 1500 pM
13 | C=C[C@@H]1C[C@]1(NC(=O)[C@@H]1C[C@@H]2CN1C(=O)[C@H](C(C)(C)C)NC(=O)O[C@@H]1C[C@H]1CCCCCc1c(nc3ccccc3c1OCCCN1CC3(COC3)C1)O2)C(=O)NS(=O)(=O)C1(C)CC1 [Example 194] | 32 pM | 380 pM

Source: patent US9328138B2 (priority 2011, dated 2016)
